Data set [1] relates to Smn protein. As to the kind of experiment: Smn protein assay in cultured cells (SMN HTRF). The following applies: SMA patient fibroblast cells (GM03813), 48 hours; for EC1.5x for Smn protein expression: 7-point concentration curve, concentration producing 1.5 times Smn protein vs DMSO vehicle; for maximum fold (Fold) increase of Smn protein: 7-point concentration data, relative to vehicle control. It is filed as cell-based, human. On the procedure:
The SMN HTRF (homogeneous time resolved fluorescence) assay is used to quantify the level of Smn protein in SMA patient fibroblast cells treated with test compounds.
Cells are thawed and cultured in DMEM-10% FBS for 72 hours. Cells are trypsinized, counted and re-suspended to a concentration of 25,000 cells/mL in DMEM-10% FBS. The cell suspensions are plated at 5,000 cells per well in a 96 well microtiter plate and incubated for 3 to 5 hours. […] Test compounds are serially diluted 3.16-fold in 100% DMSO to generate a 7-point concentration curve. 1 μL of test compound solution is transferred to cell-containing wells and cells are incubated for 48 hours in a cell culture incubator (37° C., 5% CO2, 100% relative humidity). Triplicate samples are set up for each test compound concentration. After 48 hours, the supernatant is removed from the wells and 25 μL of the RIPA lysis buffer, containing protease inhibitors, is added to the wells and incubated with shaking at room temperature for 1 hour. 25 μL of the diluent is added and then 35 μL of the resulting lysate is transferred to a 384-well plate, where each well contains 5 μL of the antibody solution (1:100 dilution of anti-SMN d2 and anti-SMN kryptate in SMN reconstitution buffer). The plate is centrifuged for 1 minute to bring the solution to the bottom of the wells, then incubated overnight at room temperature. Fluorescence for each well of the plate at 665 nm and 620 nm is measured on an EnVision multilabel plate reader (Perkin-Elmer).
The normalized fluorescence signal is calculated for each sample, Blank and vehicle control well by dividing the signal at 665 nm by the signal at 620 nm. Normalizing the signal accounts for possible fluorescence quenching due to the matrix effect of the lysate. The ΔF value (a measurement of Smn protein abundance as a percent value) for each sample well is calculated by subtracting the normalized average fluorescence for the Blank control wells from the normalized fluorescence for each sample well, then dividing this difference by the normalized average fluorescence for the Blank control wells and multiplying the resulting value by 100. The ΔF value for each sample well represents the Smn protein abundance from test compound-treated samples. The ΔF value for each sample well is divided by the ΔF value for the vehicle control wells to calculate the fold increase in Smn protein abundance relative to the vehicle control.
On the technique in general: TR-FRET usually uses a lanthanide donor and a delayed reading to cut background.

Data set [2] relates to full length SMN2 minigene mRNA containing SMN2 exon 7. As to the kind of experiment: SMN2 minigene mRNA splicing RT-qPCR assay in cultured cells. The class given is cell-based, human. The following applies: Homo sapiens, HEK293-H; HEK293H cells stably transfected with SMN2-A minigene, 24 hours, 7-point concentration curve; concentration giving 1.5-fold full length SMN2 mRNA vs vehicle; read-out: EC1.5x for production of full length SMN2 mRNA. On the procedure: The reverse transcription-quantitative PCR-based (RT-qPCR) assay is used to quantify the level of the full length SMN2 minigene mRNA containing SMN2 exon 7 in a HEK293H cell line stably transfected with said minigene and treated with a test compound.
HEK293H cells stably transfected with the SMN2-A minigene construct described above (10,000 cells/well) are seeded in 200 ut, of cell culture medium (DMEM plus 10% FBS, with 200 μg/mL hygromycin) in 96-well flat-bottom plates and the plate is immediately swirled to ensure proper dispersal of cells, forming an even monolayer of cells. Cells are allowed to attach for at least 4-6 hours. Test compounds are serially diluted 3.16-fold in 100% DMSO to generate a 7-point concentration curve. A solution of test compound (1 μL, 200× in DMSO) is added to each cell-containing well and the plate is incubated for 24 hours in a cell culture incubator (37° C., 5% CO2, 100% relative humidity). 2 replicates are prepared for each test compound concentration. The cells are then lysed in Cells-To-Ct lysis buffer and the lysate is stored at −80° C.
Primer SMN Forward A (SEQ ID NO. 1) hybridizes to a nucleotide sequence in exon 7 (nucleotide 22 to nucleotide 40), primer SMN Reverse A (SEQ ID NO. 2) hybridizes to a nucleotide sequence in the coding sequence of Firefly luciferase, SMN Probe A (SEQ ID NO. 3) hybridizes to a nucleotide sequence in exon 7 (nucleotide 50 to nucleotide 54) and exon 8 (nucleotide 1 to nucleotide 21). The combination of these three oligonucleotides detects only SMN1 or SMN2 minigenes (RT-qPCR) and will not detect endogenous SMN1 or SMN2 genes.
The SMN forward and reverse primers are used at final concentrations of 0.4 μM. The SMN probe is used at a final concentration of 0.15 μM. The GAPDH primers are used at final concentrations of 0.2 μM and the probe at 0.15 μM.
The SMN2-minigene GAPDH mix (15 μL total volume) is prepared by combining 7.5 μL of 2×RT-PCR buffer, 0.4 μL of 25×RT-PCR enzyme mix, 0.75 μL of 20×GAPDH primer-probe mix, 4.0075 μL of water, 2 μL of 10-fold diluted cell lysate, 0.06 μL of 100 μM SMN forward primer, 0.06 μL of 100 μM SMN reverse primer, and 0.225 μL of 100 μM SMN probe.
PCR is carried out at the following temperatures for the indicated time: Step 1: 48° C. (15 min); Step 2: 95° C. (10 min); Step 3: 95° C. (15 sec); Step 4: 60° C. (1 min); then repeat Steps 3 and 4 for a total of 40 cycles.
Each reaction mixture contains both SMN2-A minigene and GAPDH primersprobe sets (multiplex design), allowing simultaneous measurement of the levels of two transcripts.
Two SMN spliced products are generated from the SMN2 minigene. The first spliced product containing exon 7, corresponding to full length SMN2 mRNA, is referred to herein using the term “SMN2 minigene FL.” The second spliced product lacking exon 7 is referred to herein using the term “SMN2 minigene Δ7.”
The increase of SMN2 minigene FL mRNA relative to that in cells treated with vehicle control is determined from real-time PCR data using a modified ΔΔCt method (as described in Livak and Schmittgen, Methods, 2001, 25:402-8). The amplification efficiency (E) is calculated from the slope of the amplification curve for SMN2 minigene FL and GAPDH individually. The abundances of SMN2 minigene FL and GAPDH are then calculated as (1+E)^−Ct, where Ct is the threshold value for each amplicon. The abundance of SMN2 minigene FL is normalized to GAPDH abundance. The normalized SMN2 minigene FL abundance from test compound-treated samples is then divided by normalized SMN2 minigene FL abundance from vehicle-treated cells to determine the level of SMN2 FL mRNA relative to vehicle control.
(In qPCR the cycle at which signal appears reflects the starting amount.)

The text below walks through data of patent US9399649B2, “Compounds for treating spinal muscular atrophy” (PTC Therapeutics Inc., priority 2012, dated 2016).

The structures appear in SMILES notation.

What is called melting point is the temperature of the solid-liquid transition. As for `Cc1cn2cc(-c3cc4ccc(N5CCN6CCC[C@@H]6C5)cc4c(=O)o3)cc2c(C)n1` [Cpd 81, 3-(1,3-dimethylpyrrolo[1,2-a]pyrazin-7-yl)-7-[(8aR)-hexahydropyrrolo[1,2-a]pyrazin-2(1H)-yl]-1H-isochromen-1-one], the melting point fell in the range of 218 to 220 °C. Also, in data set [1], the “EC1.5x for Smn protein expression” value was “**** (an EC1.5×≦0.3 nM is indicated by four stars (****))” and the “maximum fold (Fold) increase of Smn protein” value (“maximum fold (Fold) increase” below) is “***** (a fold increase >1.65 is indicated by five stars (*****))”. The EC (1.5-fold) in data set [2] was at most 0.1 µM.
The like results for `Cc1cn2cc(-c3cc4ccc(N5CCN[C@H](C)C5)cc4c(=O)o3)nc2cn1` [Cpd 125, 3-(6-methylimidazo[1,2-a]pyrazin-2-yl)-7-[(3R)-3-methylpiperazin-1-yl]-1H-isochromen-1-one] were, in that order, 219 to 225 °C, “**** (an EC1.5×≦0.3 nM is indicated by four stars (****))”, “***** (a fold increase >1.65 is indicated by five stars (*****))” and at most 0.1 µM.
The compound `CCN1CCN(c2ccc3cc(-c4cn5cc(C)ncc5n4)oc(=O)c3c2)C[C@H]1C` [Cpd 126, 7-[(3R)-4-ethyl-3-methylpiperazin-1-yl]-3-(6-methylimidazo[1,2-a]pyrazin-2-yl)-1H-isochromen-1-one] gave a melting point of 238 to 241 °C. In addition, in data set [1], the “EC1.5x for Smn protein expression” value was “**** (an EC1.5×≦0.3 nM is indicated by four stars (****))”; the “maximum fold (Fold) increase” value is “**** (a fold increase between >1.5 and ≦1.65 is indicated by four stars (****))”. In addition, the EC (1.5-fold) in data set [2] was at most 0.1 µM.
With `Cc1cn2cc(-c3cc4ccc(N5CCNCC5)cc4c(=O)o3)nc2c(C)n1` [Cpd 62, 3-(6,8-dimethylimidazo[1,2-a]pyrazin-2-yl)-7-(piperazin-1-yl)-1H-isochromen-1-one], in data set [1], the “EC1.5x for Smn protein expression” value is recorded as “**** (an EC1.5×≦0.3 nM is indicated by four stars (****))” and the “maximum fold (Fold) increase” value is listed as “***** (a fold increase >1.65 is indicated by five stars (*****))”. For the same compound, the EC (1.5-fold) in data set [2] was at most 0.1 µM.
Regarding `Cc1cn2cc(-c3cc4ccc(C5CCN(C6CCC6)CC5)cc4c(=O)o3)nc2c(C)n1` [Cpd 118, 7-(1-cyclobutylpiperidin-4-yl)-3-(6,8-dimethylimidazo[1,2-a]pyrazin-2-yl)-1H-isochromen-1-one], in data set [1], the “EC1.5x for Smn protein expression” value is listed as “**** (an EC1.5×≦0.3 nM is indicated by four stars (****))”; the “maximum fold (Fold) increase” value is “**** (a fold increase between >1.5 and ≦1.65 is indicated by four stars (****))”. Also, in data set [2], the EC (1.5-fold) is at most 0.1 µM.
For `Cc1cn2cc(-c3cc4ccc(N5CCN6CCC[C@@H]6C5)cc4c(=O)o3)nc2c(C)n1` [Cpd 70, 3-(6,8-dimethylimidazo[1,2-a]pyrazin-2-yl)-7-[(8aR)-hexahydropyrrolo[1,2-a]pyrazin-2(1H)-yl]-1H-isochromen-1-one], in data set [1], the “EC1.5x for Smn protein expression” value was “*** (an EC1.5× between >0.3 nM and ≦1 nM is indicated by three stars (***))”; the “maximum fold (Fold) increase” value was “**** (a fold increase between >1.5 and ≦1.65 is indicated by four stars (****))”. The EC (1.5-fold) in data set [2] was in the range of 0.1 to 0.3 µM.
Turning to `CCc1nc(C)cn2cc(-c3cc4ccc(N5CCNCC5)cc4c(=O)o3)nc12` [Cpd 150, 3-(8-ethyl-6-methylimidazo[1,2-a]pyrazin-2-yl)-7-(piperazin-1-yl)-1H-isochromen-1-one], in data set [1], the “EC1.5x for Smn protein expression” value is “**** (an EC1.5×≦0.3 nM is indicated by four stars (****))” and the “maximum fold (Fold) increase” value was “***** (a fold increase >1.65 is indicated by five stars (*****))”. Also, in data set [2], the EC (1.5-fold) is at most 0.1 µM.
The like results for `Cc1cn2cc(-c3cc4ccc(N5CCN(CCO)[C@H](C)C5)cc4c(=O)o3)nc2cn1` [Cpd 133, 7-[(3R)-4-(2-hydroxyethyl)-3-methylpiperazin-1-yl]-3-(6-methylimidazo[1,2-a]pyrazin-2-yl)-1H-isochromen-1-one] were, in that order, “**** (an EC1.5×≦0.3 nM is indicated by four stars (****))”, “***** (a fold increase >1.65 is indicated by five stars (*****))” and at most 0.1 µM.
Consider `COc1ccc(-c2cc3ccc(N4CCN(C)CC4)cc3c(=O)o2)cc1OC` [Cpd 16, 3-(3,4-dimethoxyphenyl)-7-(4-methylpiperazin-1-yl)-1H-isochromen-1-one], for which, in data set [1], the “maximum fold (Fold) increase” value is “*** (a fold increase between >1.35 and ≦1.5 is indicated by three stars (***))”. In data set [2], the EC (1.5-fold) is 0.3 to 1 µM.
For the compound `Cc1cn2cc(-c3cc4ccc(N5C[C@@H](C)N(C6CCC6)[C@@H](C)C5)cc4c(=O)o3)nc2cn1` [Cpd 132, 7-[(3R,5S)-4-cyclobutyl-3,5-dimethylpiperazin-1-yl]-3-(6-methylimidazo[1,2-a]pyrazin-2-yl)-1H-isochromen-1-one], in data set [1], the “EC1.5x for Smn protein expression” value was “**** (an EC1.5×≦0.3 nM is indicated by four stars (****))” and the “maximum fold (Fold) increase” value is on record as “***** (a fold increase >1.65 is indicated by five stars (*****))”. Moreover, the EC (1.5-fold) in data set [2] is at most 0.1 µM.
Regarding `Cc1cn2cc(-c3cc4ccc(N5CCN(CCO)[C@@H](C)C5)cc4c(=O)o3)nc2c(C)n1` [Cpd 134, 3-(6,8-dimethylimidazo[1,2-a]pyrazin-2-yl)-7-[(3S)-4-(2-hydroxyethyl)-3-methylpiperazin-1-yl]-1H-isochromen-1-one], in data set [1], the “EC1.5x for Smn protein expression” value is on record as “**** (an EC1.5×≦0.3 nM is indicated by four stars (****))” and the “maximum fold (Fold) increase” value was “***** (a fold increase >1.65 is indicated by five stars (*****))”. The EC (1.5-fold) in data set [2] was at most 0.1 µM.
